≈ marks a conversion by molar mass, not a printed value. Calls of active or inactive are those of the source. The rule behind the calls is not given here.
The molecules below were run on Vero (assay: Cytotoxicity against african green monkey Vero cells by celltiter 96 aqueous nonradioactive assay). Settings: Chlorocebus sabaeus.
Format: cell-based

With `C=CC(O)(CC[C@@H](C)[C@H]1CC[C@H]2[C@@H]3CC=C4C[C@@H](O)CC[C@]4(C)[C@H]3CC[C@]12C)C(C)C` (stereo partly specified) [SARINGOSTEROL] as the molecule, how does the IC50 read?
The IC50 was over 128 µg/mL.

Each molecule was assayed on Mycobacterium tuberculosis (assay: Antitubercular activity against Mycobacterium tuberculosis H37Rv ATCC 27294 by BACTEC 460 radiometric assay). Settings: not given.
Format: functional

Which MIC does the source give for `C=C[C@](O)(CC[C@@H](C)[C@H]1CC[C@H]2[C@@H]3CC=C4C[C@@H](O)CC[C@]4(C)[C@H]3CC[C@]12C)C(C)C` here?
Its MIC is 1 µg/mL (≈ 2.33 µM).

With `C=C[C@@](O)(CC[C@@H](C)[C@H]1CC[C@H]2[C@@H]3CC=C4C[C@@H](O)CC[C@]4(C)[C@H]3CC[C@]12C)C(C)C` as the molecule, how does the MIC read?
Its MIC is 0.125 µg/mL (≈ 0.292 µM).

How did the MIC turn out when `C/C=C(\CC[C@@H](C)[C@H]1CC[C@H]2[C@@H]3CC=C4C[C@@H](O)CC[C@]4(C)[C@H]3CC[C@]12C)C(C)C` was run?
Its MIC is “inactive”.

`CO[C@H]1/C=C/O[C@@]2(C)Oc3c(C)c(O)c4c(O)c(c(/C=N/N5CCN(C)CC5)c(O)c4c3C2=O)NC(=O)/C(C)=C\C=C\[C@H](C)[C@H](O)[C@@H](C)[C@@H](O)[C@@H](C)[C@H](OC(C)=O)[C@@H]1C` [RIFAMPIN] was tested. Which MIC did it give?
Its MIC is 0.25 µg/mL (≈ 0.304 µM).

Which MIC does the source give for `C=CC(O)(CC[C@@H](C)[C@H]1CC[C@H]2[C@@H]3CC=C4C[C@@H](O)CC[C@]4(C)[C@H]3CC[C@]12C)C(C)C` (stereo partly specified) [SARINGOSTEROL] here?
Its MIC is 0.25 µg/mL (≈ 0.583 µM).

— ChEMBL document CHEMBL1156380, “Inhibition of Mycobacterium tuberculosis growth by saringosterol from Lessonia nigrescens” (J Nat Prod, 2001)
